Data on one molecule can be found in US20070196902A1, “Method of detecting AZT resistance in HIV” (University of Pittsburgh, priority 2006, published 2007).

Usually IC50 stands for the point on the concentration scale where inhibition reaches its midpoint. A higher IC50 goes with weaker potency in that assay.

The test system of assay [1] is HIV-1 RT N3481 with "classic" TAMs. The settings on record: N3481 present with "classic" TAMs; cited from earlier work.
For assay [2], the system named is HIVLAI RT D67N/K70R/A371V/Q509L. Description: Drug susceptibility assay in P4/R5 cells, site-directed mutant. The class given is cell-based, HIV-1. The method, then:
(§1) Drug susceptibility assays. NRTI susceptibility was determined in P4/R5 cells as described previously (Parikh, U. M., et al. 2005. Antimicrob. Agents Chemother. 49:1139-44). Briefly, threefold dilutions of inhibitor were added to P4/R5 cells in triplicate and cells were infected with an amount of virus that produced 100 relative units of light (RLU) in no drug, virus control wells. After 48 hours, the cells were lysed (Gal-Screen; Tropix/Applied Biosystems, Foster City, Calif.) and the RLU was measured using a ThermoLabSystems luminometer (Waltham, Mass.). The IC50 and fold-resistance were calculated as described above. IC50 values from at least three independent experiments were log10 transformed and compared for statistically significant differences using the two-sample Student's t test.
(§2) Construction of mutant recombinant HIV-1. Mutant recombinant plasmid clones of virus were generated by oligonucleotide site-directed mutagenesis as described previously (Shi, C., and J. W. Mellors. 1997. A recombinant retroviral system for rapid […] analysis of human immunodeficiency virus type 1 susceptibility to reverse transcriptase inhibitors. Antimicrob. Agents Chemother. 41:2781-5), using the p6HRT-MO plasmid. p6HRT-MO contains the entire RT and protease coding sequence as previously described (Le Grice, S. F., and F. Gruninger-Leitch. 1990. Rapid purification of homodimer and heterodimer HIV-1 reverse transcriptase by metal chelate affinity chromatography. Eur. J. Biochem. 187:307-14) and four silent restriction sites (Xma I, Mlu I, Xba I, and NgoM IV from the 5′ to 3′ end of RT at codons 14, 358, 490 and 554, respectively). After site-directed mutagenesis (QIAamp kit, QIAGEN, Valencia, Calif.), the mutated RT was ligated into pxxHIV-1LAI MO that contains the entire genome of HIV-1LAI and the same silent restriction sites as p6HRT-MO. Infectious virus was generated by electroporating the mutated xxHIV-1LAI MO plasmid into MT-2 cells as described above. All mutations in recombinant viruses were confirmed by full-length sequencing of the entire RT coding region.

Another assay deals with HIVLAI RT 67N/70R/509L. Described as above. The format is cell-based, HIV-1. Here is the method:
as §1, §2

For another assay, the system named is HIVLAI RT D67N/K70R. The assay is described as above. The class given is cell-based, HIV-1. The method, then: as §1, §2
The subject of assay [3] is HIVLAI RT 67N/70R/215F/371V. The assay is described as above. The class given is cell-based, HIV-1. Here is the method:
as §1, §2

Assay [4] has as its system HIVLAI RT D67N/K70R/T215I/A371V/Q509L. Described as above. The class given is cell-based, HIV-1. Here is the method: as §1, §2
The next assay has as its system HIVLAI RT A371V/Q509L. The assay is described as above. The format is cell-based, HIV-1. Here is the method: as §1, §2
Assay [5] concerns HIVLAI RT 67N/70R/215I/509L. The assay is described as above. The format is cell-based, HIV-1. The method, then:
as §1, §2

The test system of a further assay is HIVLAI RT Q509L. The assay is described as above. The format is cell-based, HIV-1. The method, then: as §1, §2
The subject of assay [6] is HIVLAI RT D67N/K70R/T215F/A371V/Q509L. Described as above. The format is cell-based, HIV-1. The method, then: as §1, §2
In assay [7] the test system is HIVLAI RT 67N/70R/215I/371V. The description is as above. The class given is cell-based, HIV-1. The method, then: as §1, §2

Molecules are shown by their SMILES.

Take `Cc1cn([C@H]2C[C@H](N=[N+]=[N-])[C@@H](CO)O2)c(=O)[nH]c1=O` [AZT, 3′-azido-3′-dideoxythymidine]: the “reduction of AZT susceptibility” value in assay [1] is 35 fold. Moreover, the Fold-Resistance in [2] (67N/70R/371V/509L compared to wild-type) is given as 39 fold; in the assay with HIVLAI RT 67N/70R/509L (67N/70R/509L compared to wild-type) it was 14 fold; with HIVLAI RT D67N/K70R (67N/70R compared to wild-type), 4.6 fold; in assay [3] (67N/70R/215F/371V compared to wild-type), 22 fold; in [4] (67N/70R/215I/371V/509L compared to wild-type), 41 fold; with HIVLAI RT A371V/Q509L (A371V/Q509L compared to wild-type), 1.7 fold. In addition, the Fold-Resistance in [5] (67N/70R/215I/509L compared to wild-type) is listed as 14 fold; in the assay with HIVLAI RT Q509L (Q509L compared to wild-type), 1.3 fold; in assay [6] (67N/70R/215F/371V/509L compared to wild-type), 934 fold; in assay [7] (67N/70R/215I/371V compared to wild-type), 2.6 fold. In addition, the half-inhibitory concentration (IC50) in assay [2] (Human immunodeficiency virus 1, P4/R5, 67N/70R/371V/509L, mean ± SD) was 9.1 ± 5.2 µM; in the assay with HIVLAI RT 67N/70R/509L (Human immunodeficiency virus 1, P4/R5, 67N/70R/509L, mean ± SD), 3000 ± 1000 nM; in the assay with HIVLAI RT D67N/K70R (Human immunodeficiency virus 1, P4/R5, 67N/70R, mean ± SD), 1100 ± 600 nM; in assay [3] (Human immunodeficiency virus 1, P4/R5, 67N/70R/215F/371V, mean ± SD), 4.9 ± 2.9 µM; in assay [4] (Human immunodeficiency virus 1, P4/R5, 67N/70R/215I/371V/509L, mean ± SD) it was 9.4 ± 6.7 µM; with HIVLAI RT A371V/Q509L (Human immunodeficiency virus 1, P4/R5, A371V/Q509L, mean ± SD), 300 ± 60 nM. Moreover, the 50% inhibitory concentration (IC50) in assay [5] (Human immunodeficiency virus 1, P4/R5, 67N/70R/215I/509L, mean ± SD) came out at 3000 ± 2200 nM; with HIVLAI RT Q509L (Human immunodeficiency virus 1, P4/R5, Q509L, mean ± SD), 300 ± 200 nM; in assay [6] (Human immunodeficiency virus 1, P4/R5, 67N/70R/215F/371V/509L, mean ± SD) it was 203 ± 40 µM; in [7] (Human immunodeficiency virus 1, P4/R5, 67N/70R/215I/371V, mean ± SD), 600 ± 300 nM.
